Patent publication US20140221340A1 (KYOWA HAKKO KIRIN CO., LTD., priority 2011, published 2014)

Target: T1, human CCR10 (Homo sapiens, UniProt P46092)
T1 construct: expressed in transfected cells; host or cells: KJMGER8 cell (cell line derived from Namalwa cell); expression induced with 10 nmol/L β-estradiol
T1 sequence (P46092 1-362): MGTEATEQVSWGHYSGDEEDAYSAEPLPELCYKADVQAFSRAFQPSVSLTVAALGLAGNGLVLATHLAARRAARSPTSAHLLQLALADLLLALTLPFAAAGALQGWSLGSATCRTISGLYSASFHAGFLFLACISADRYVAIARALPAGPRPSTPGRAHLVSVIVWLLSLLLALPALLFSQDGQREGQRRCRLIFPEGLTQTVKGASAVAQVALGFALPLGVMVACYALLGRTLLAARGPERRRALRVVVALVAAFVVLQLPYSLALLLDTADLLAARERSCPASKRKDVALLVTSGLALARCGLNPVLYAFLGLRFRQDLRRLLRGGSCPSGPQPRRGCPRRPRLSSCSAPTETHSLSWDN
Test: Calcium assay of human CCR10 (inhibition of CTACK-induced increase in intracellular calcium ion concentration in hCCR10G16 cells)
Format: cell-based
Conditions: test compound 100 nmol/L; human recombinant CTACK; hCCR10G16 cells (KJMGER8/Namalwa-derived, Gα16 co-expressed); FLIPR or FDSS; read-out: Inhibitory rate (%) for an increase in calcium ion concentration
Outline: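 KJMGER8-derived hCCR10G16 cells (human CCR10 plus Gα16, expression induced 24 h with 10 nmol/L β-estradiol) were dye-loaded and preincubated with compound for 30 min at 37 °C, then stimulated with CTACK (300 nmol/L stock). Calcium flux over ~5 min (max−min fluorescence) gave percent inhibition versus DMSO control.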

inhibition at 0.1 µM | Compound
> 100% | O=C(c1cnc2c(S(=O)(=O)Nc3cccnn3)cnn2c1Nc1cc(Cl)ccc1Cl)N1CCC(c2ccc(F)cc2)CC1 [a-79, 7-(2,5-Dichlorophenylamino)-6-[4-(4-fluorophenyl)piperidine-1-carbonyl]-N-(pyridazin-3-yl)pyrazolo[1,5-a]pyrimidine-3-sulfonamide]
> 100% | O=C(c1cnc2c(S(=O)(=O)Nc3ncccn3)cnn2c1Nc1cc(Cl)ccc1Cl)N1CCC(c2ccc(F)cc2)CC1 [a-80, 7-(2,5-Dichlorophenylamino)-6-[4-(4-fluorophenyl)piperidine-1-carbonyl]-N-(pyrimidin-2-yl)pyrazolo[1,5-a]pyrimidine-3-sulfonamide]
62.3% | Cc1ccc(Cl)c(Nc2c(C(=O)N3CCC4(CC3)OCc3ccccc34)cnc3c(S(=O)(=O)NC(=O)NC4CCOCC4)cnn23)c1 [a-81, 7-(2-Chloro-5-methylphenylamino)-6-[3H-spiro(isobenzofuran-1,4′-piperidine)-1′-carbonyl]-N-(tetrahydro-2H-pyran-4-ylcarbamoyl)pyrazolo[1,5-a]pyrimidine-3-sulfonamide]
75.3% | Cc1ccc(Cl)c(Nc2c(C(=O)N3CCC4(CC3)OCc3ccccc34)cnc3c(S(=O)(=O)NC(=O)NCC(F)(F)F)cnn23)c1 [a-82, 7-(2-Chloro-5-methylphenylamino)-6-[3H-spiro(isobenzofuran-1,4′-piperidine)-1′-carbonyl]-N-(2,2,2-trifluoroethylcarbamoyl)pyrazolo[1,5-a]pyrimidine-3-sulfonamide]
